Measured values taken from BindingDB's records for doi:10.1124/jpet.301.1.37 (National Institutes of Health, 2002).
“And” between values parts separate entries of the source, which are not always exact repeats. Identical values can stand only once.

Experiments:
VIP peptides [1] = target: T1, VIP peptides (Cavia porcellus, UniProt P04566)
T1 sequence (P04566 whole entry): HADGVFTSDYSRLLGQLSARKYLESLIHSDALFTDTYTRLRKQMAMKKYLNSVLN

VIP peptides [2] = target: T2, VIP peptides (Homo sapiens, UniProt P01282)
T2 sequence (P01282 whole entry): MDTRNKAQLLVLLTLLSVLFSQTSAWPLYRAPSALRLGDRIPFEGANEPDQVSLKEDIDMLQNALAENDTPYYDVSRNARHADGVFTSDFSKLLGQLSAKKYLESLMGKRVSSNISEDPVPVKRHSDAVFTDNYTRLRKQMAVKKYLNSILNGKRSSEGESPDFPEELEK

VIP peptides [3] = target: T3, VIP peptides (Rattus norvegicus, UniProt P01283)
T3 sequence (P01283 whole entry): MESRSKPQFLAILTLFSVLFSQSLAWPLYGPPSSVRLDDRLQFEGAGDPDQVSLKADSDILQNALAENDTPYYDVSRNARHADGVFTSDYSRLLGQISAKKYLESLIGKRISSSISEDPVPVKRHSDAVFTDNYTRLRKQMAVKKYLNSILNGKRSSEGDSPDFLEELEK

| Ki (VIP peptides [1]) [nM] | Ki (VIP peptides [2]) | Compound | Ki (VIP peptides [3]) |
| --- | --- | --- | --- |
| 66.1 | 17.8 nM and 51.3 nM and 35.7 nM | CC[C@H](C)[C@H](NC(=O)[C@H](CO)NC(=O)[C@H](CC(N)=O)NC(=O)[C@H](CC(C)C)NC(=O)[C@H](Cc1ccc(O)cc1)NC(=O)[C@H](CCCCN)NC(=O)[C@H](CCCCN)NC(=O)[C@@H](NC(=O)[C@H](C)NC(=O)[C@H](CCSC)NC(=O)[C@H](CCC(N)=O)NC(=O)[C@H](CCCCN)NC(=O)[C@H](CCCN=C(N)N)NC(=O)[C@H](CC(C)C)NC(=O)[C@H](CCCN=C(N)N)NC(=O)[C@@H](NC(=O)[C@H](Cc1ccc(O)cc1)NC(=O)[C@H](CC(N)=O)NC(=O)[C@H](CC(=O)O)NC(=O)[C@H](C)NC(=O)[C@H](Cc1ccccc1)NC(=O)[C@@H](NC(=O)[C@H](C)NC(=O)[C@H](CC(=O)O)NC(=O)[C@H](CO)NC(=O)[C@@H](N)Cc1cnc[nH]1)C(C)C)[C@@H](C)O)C(C)C)C(=O)N[C@@H](CC(C)C)C(=O)N[C@@H](CC(N)=O)C(N)=O [VIP Ala7] | 16.2 nM and 107 nM and 53.7 nM |
| 95.4 | 16.9 nM and 89.1 nM and 64.5 nM | H-ASDAVFTDNYTRLRKQMAVKKYLNSILN-NH2 [VIP Ala1] |  |
| 2.6 | 0.43 nM and 3.6 nM and 2.7 nM | H-HADAVFTDNYTRLRKQMAVKKYLNSILN-NH2 [VIP Ala2] |  |
| 1.2 | 0.17 nM and 1.6 nM and 1.2 nM | H-HSDAVFTANYTRLRKQMAVKKYLNSILN-NH2 [VIP Ala8] |  |
| 54.9 | 61.7 nM and 56.2 nM and 44.7 nM | H-HSDAVFTDNATRLRKQMAVKKYLNSILN-NH2 [VIP Ala10] |  |
| 2.4 |  | H-HSDAVFTDNYARLRKQMAVKKYLNSILN-NH2 [VIP Ala11] | 0.34 nM and 1.9 nM and 0.42 nM |
| 1.9 | 2.1 nM and 16.2 nM and 15.9 nM | H-HSDAVFTDNYTRLRAQMAVKKYLNSILN-NH2 [VIP Ala15] |  |
| 5.1 |  | H-HSDAVFTDNYTRLRKAMAVKKYLNSILN-NH2 [VIP Ala16] | 0.93 nM and 2.1 nM and 1.1 nM |
| 5.5 |  | H-HSDAVFTDNYTRLRKQMAVAKYLNSILN-NH2 [VIP Ala20] | 1.7 nM and 3.5 nM and 3.3 nM |
| 4.3 | 0.54 nM and 2.7 nM and 2.8 nM | H-HSDAVFTDNYTRLRKQMAVKKYLNSILA-NH2 [VIP Ala28] |  |

| Compound | Ki (VIP peptides [1]) [nM] | Ki (VIP peptides [2]) | Ki (VIP peptides [3]) |
| --- | --- | --- | --- |
| CC[C@H](C)[C@H](NC(=O)[C@H](CO)NC(=O)[C@H](CC(N)=O)NC(=O)[C@H](CC(C)C)NC(=O)[C@H](Cc1ccc(O)cc1)NC(=O)[C@H](CCCCN)NC(=O)[C@H](CCCCN)NC(=O)[C@@H](NC(=O)[C@H](C)NC(=O)[C@H](CCSC)NC(=O)[C@H](CCC(N)=O)NC(=O)[C@H](CCCCN)NC(=O)[C@H](CCCN=C(N)N)NC(=O)[C@H](CC(C)C)NC(=O)[C@H](CCCN=C(N)N)NC(=O)[C@@H](NC(=O)[C@H](Cc1ccc(O)cc1)NC(=O)[C@H](CC(N)=O)NC(=O)[C@H](CC(=O)O)NC(=O)[C@@H](NC(=O)[C@H](Cc1ccccc1)NC(=O)[C@@H](NC(=O)[C@@H](C)NC(=O)[C@H](CC(=O)O)NC(=O)[C@H](CO)NC(=O)[C@@H](N)Cc1cnc[nH]1)C(C)C)[C@@H](C)O)[C@@H](C)O)C(C)C)C(=O)N[C@@H](CC(C)C)C(=O)N[C@@H](CC(N)=O)C(N)=O [VIP [D-Ala4]] | 16.2 |  | 1.1 nM and 7.2 nM and 10.5 nM |
| CC[C@H](C)[C@H](NC(=O)[C@H](CO)NC(=O)[C@H](CC(N)=O)NC(=O)[C@H](CC(C)C)NC(=O)[C@H](Cc1ccc(O)cc1)NC(=O)[C@H](CCCCN)NC(=O)[C@H](CCCCN)NC(=O)[C@@H](NC(=O)[C@H](C)NC(=O)[C@H](CCSC)NC(=O)[C@H](CCC(N)=O)NC(=O)[C@H](CCCCN)NC(=O)[C@H](CCCN=C(N)N)NC(=O)[C@H](CC(C)C)NC(=O)[C@@H](CCCN=C(N)N)NC(=O)[C@@H](NC(=O)[C@H](Cc1ccc(O)cc1)NC(=O)[C@H](CC(N)=O)NC(=O)[C@H](CC(=O)O)NC(=O)[C@@H](NC(=O)[C@H](Cc1ccccc1)NC(=O)[C@@H](NC(=O)[C@H](C)NC(=O)[C@H](CC(=O)O)NC(=O)[C@H](CO)NC(=O)[C@@H](N)Cc1cnc[nH]1)C(C)C)[C@@H](C)O)[C@@H](C)O)C(C)C)C(=O)N[C@@H](CC(C)C)C(=O)N[C@@H](CC(N)=O)C(N)=O [VIP [D-Arg12]] | 16.9 | 2.2 nM and 18.2 nM and 14.4 nM | 2.8 nM and 11.7 nM and 19.1 nM |
| CC[C@H](C)[C@H](NC(=O)[C@H](CO)NC(=O)[C@H](CC(N)=O)NC(=O)[C@H](CC(C)C)NC(=O)[C@H](Cc1ccc(O)cc1)NC(=O)[C@H](CCCCN)NC(=O)[C@H](CCCCN)NC(=O)[C@@H](NC(=O)[C@H](C)NC(=O)[C@H](CCSC)NC(=O)[C@H](CCC(N)=O)NC(=O)[C@H](CCCCN)NC(=O)[C@@H](CCCN=C(N)N)NC(=O)[C@H](CC(C)C)NC(=O)[C@H](CCCN=C(N)N)NC(=O)[C@@H](NC(=O)[C@H](Cc1ccc(O)cc1)NC(=O)[C@H](CC(N)=O)NC(=O)[C@H](CC(=O)O)NC(=O)[C@@H](NC(=O)[C@H](Cc1ccccc1)NC(=O)[C@@H](NC(=O)[C@H](C)NC(=O)[C@H](CC(=O)O)NC(=O)[C@H](CO)NC(=O)[C@@H](N)Cc1cnc[nH]1)C(C)C)[C@@H](C)O)[C@@H](C)O)C(C)C)C(=O)N[C@@H](CC(C)C)C(=O)N[C@@H](CC(N)=O)C(N)=O [VIP [D-Arg14]] | 36.4 | 10.7 nM and 31.6 nM and 24.6 nM | 10.5 nM and 22.4 nM and 27.5 nM |
| CC[C@H](C)[C@H](NC(=O)[C@H](CO)NC(=O)[C@H](CC(N)=O)NC(=O)[C@H](CC(C)C)NC(=O)[C@H](Cc1ccc(O)cc1)NC(=O)[C@H](CCCCN)NC(=O)[C@H](CCCCN)NC(=O)[C@@H](NC(=O)[C@H](C)NC(=O)[C@H](CCSC)NC(=O)[C@H](CCC(N)=O)NC(=O)[C@H](CCCCN)NC(=O)[C@H](CCCN=C(N)N)NC(=O)[C@H](CC(C)C)NC(=O)[C@H](CCCN=C(N)N)NC(=O)[C@@H](NC(=O)[C@H](Cc1ccc(O)cc1)NC(=O)[C@H](CC(N)=O)NC(=O)[C@H](CC(=O)O)NC(=O)[C@@H](NC(=O)[C@H](Cc1ccccc1)NC(=O)[C@@H](NC(=O)[C@H](C)NC(=O)[C@H](CC(=O)O)NC(=O)[C@H](CO)NC(=O)[C@@H](N)Cc1cnc[nH]1)C(C)C)[C@@H](C)O)[C@@H](C)O)C(C)C)C(=O)N[C@@H](CC(C)C)C(=O)N[C@H](CC(N)=O)C(N)=O [VIP [D-Asn28]] | 14.8 |  | 1.5 nM and 6.3 nM and 11.8 nM |
| CC[C@H](C)[C@H](NC(=O)[C@H](CO)NC(=O)[C@H](CC(N)=O)NC(=O)[C@H](CC(C)C)NC(=O)[C@H](Cc1ccc(O)cc1)NC(=O)[C@H](CCCCN)NC(=O)[C@H](CCCCN)NC(=O)[C@@H](NC(=O)[C@H](C)NC(=O)[C@H](CCSC)NC(=O)[C@H](CCC(N)=O)NC(=O)[C@H](CCCCN)NC(=O)[C@H](CCCN=C(N)N)NC(=O)[C@H](CC(C)C)NC(=O)[C@H](CCCN=C(N)N)NC(=O)[C@@H](NC(=O)[C@H](Cc1ccc(O)cc1)NC(=O)[C@H](CC(N)=O)NC(=O)[C@H](CC(=O)O)NC(=O)[C@@H](NC(=O)[C@H](Cc1ccccc1)NC(=O)[C@@H](NC(=O)[C@H](C)NC(=O)[C@@H](CC(=O)O)NC(=O)[C@H](CO)NC(=O)[C@@H](N)Cc1cnc[nH]1)C(C)C)[C@@H](C)O)[C@@H](C)O)C(C)C)C(=O)N[C@@H](CC(C)C)C(=O)N[C@@H](CC(N)=O)C(N)=O [VIP [D-Asp3]] | 9.1 |  | 0.93 nM and 5.4 nM and 6.5 nM |
| CC[C@H](C)[C@H](NC(=O)[C@H](CO)NC(=O)[C@H](CC(N)=O)NC(=O)[C@H](CC(C)C)NC(=O)[C@H](Cc1ccc(O)cc1)NC(=O)[C@H](CCCCN)NC(=O)[C@H](CCCCN)NC(=O)[C@@H](NC(=O)[C@H](C)NC(=O)[C@H](CCSC)NC(=O)[C@@H](CCC(N)=O)NC(=O)[C@H](CCCCN)NC(=O)[C@H](CCCN=C(N)N)NC(=O)[C@H](CC(C)C)NC(=O)[C@H](CCCN=C(N)N)NC(=O)[C@@H](NC(=O)[C@H](Cc1ccc(O)cc1)NC(=O)[C@H](CC(N)=O)NC(=O)[C@H](CC(=O)O)NC(=O)[C@@H](NC(=O)[C@H](Cc1ccccc1)NC(=O)[C@@H](NC(=O)[C@H](C)NC(=O)[C@H](CC(=O)O)NC(=O)[C@H](CO)NC(=O)[C@@H](N)Cc1cnc[nH]1)C(C)C)[C@@H](C)O)[C@@H](C)O)C(C)C)C(=O)N[C@@H](CC(C)C)C(=O)N[C@@H](CC(N)=O)C(N)=O [VIP [D-Gln16]] | 11.5 | 1.1 nM and 2.9 nM and 3.5 nM | 1 nM and 5.6 nM and 9.3 nM |
| CC[C@H](C)[C@H](NC(=O)[C@H](CO)NC(=O)[C@H](CC(N)=O)NC(=O)[C@H](CC(C)C)NC(=O)[C@H](Cc1ccc(O)cc1)NC(=O)[C@H](CCCCN)NC(=O)[C@H](CCCCN)NC(=O)[C@@H](NC(=O)[C@H](C)NC(=O)[C@H](CCSC)NC(=O)[C@H](CCC(N)=O)NC(=O)[C@H](CCCCN)NC(=O)[C@H](CCCN=C(N)N)NC(=O)[C@H](CC(C)C)NC(=O)[C@H](CCCN=C(N)N)NC(=O)[C@@H](NC(=O)[C@@H](Cc1ccc(O)cc1)NC(=O)[C@H](CC(N)=O)NC(=O)[C@H](CC(=O)O)NC(=O)[C@@H](NC(=O)[C@H](Cc1ccccc1)NC(=O)[C@@H](NC(=O)[C@H](C)NC(=O)[C@H](CC(=O)O)NC(=O)[C@H](CO)NC(=O)[C@@H](N)Cc1cnc[nH]1)C(C)C)[C@@H](C)O)[C@@H](C)O)C(C)C)C(=O)N[C@@H](CC(C)C)C(=O)N[C@@H](CC(N)=O)C(N)=O [VIP [D-Tyr10]] | 23.4 | 3.7 nM and 32.3 nM and 24.5 nM |  |
| CC[C@H](C)[C@H](NC(=O)[C@H](CO)NC(=O)[C@H](CC(N)=O)NC(=O)[C@H](CC(C)C)NC(=O)[C@H](Cc1ccc(O)cc1)NC(=O)[C@H](CCCCN)NC(=O)[C@H](CCCCN)NC(=O)[C@@H](NC(=O)[C@H](C)NC(=O)[C@H](CCSC)NC(=O)[C@H](CCC(N)=O)NC(=O)[C@H](CCCCN)NC(=O)[C@H](CCCN=C(N)N)NC(=O)[C@H](CC(C)C)NC(=O)[C@H](CCCN=C(N)N)NC(=O)[C@@H](NC(=O)[C@H](Cc1ccc(O)cc1)NC(=O)[C@H](CC(N)=O)NC(=O)[C@H](CC(=O)O)NC(=O)[C@@H](NC(=O)[C@H](Cc1ccccc1)NC(=O)[C@H](NC(=O)[C@H](C)NC(=O)[C@H](CC(=O)O)NC(=O)[C@H](CO)NC(=O)[C@@H](N)Cc1cnc[nH]1)C(C)C)[C@@H](C)O)[C@@H](C)O)C(C)C)C(=O)N[C@@H](CC(C)C)C(=O)N[C@@H](CC(N)=O)C(N)=O [VIP [D-Val5]] | 26.3 | 6.2 nM and 44.6 nM and 25.1 nM |  |
